According to article PMC10700596 (Nature Communications, 2023):
Where “and” joins values, the source holds several entries; their conditions need not be identical. Equal entries are not always repeated. Entries after “also recorded” stand apart in the source; their conditions may differ.

How the values were obtained:
[1] = target: FLT3 (Homo sapiens, UniProt P36888); test: biochemical; assay type: binding; conditions: 10000 nM; read-out: Percent Control
[2] = target: T1, EP4R (Homo sapiens, UniProt P35408); test: cell-based; conditions: read-out: cAMP Assay KB
T1 construct: Tango fusion cassette (only 'tango' is printed); expressed in transfected cells; host or cells: HTLA cells (tTA-dependent luciferase reporter, β-arrestin2-TEV fusion)

[3] = target: EP4R Thr76Ala mutant (Homo sapiens, UniProt P35408, T76A); assay type: cell-based; conditions: IC50 vs WT EP4R
Description: three independent experiments. Source data are provided as a Source Data file.
(§1) (1 picture or pasted object on this page, not shown here)

[4] = target: wild-type EP4R (Homo sapiens, UniProt P35408); test: cell-based
[5] = target: JNK3 (Homo sapiens, UniProt P53779); test: biochemical; assay type: binding; conditions: 10000 nM; read-out: Percent Control
[6] = target: ERBB2 (Homo sapiens, UniProt P04626); test: biochemical; assay type: binding; conditions: 10000 nM; read-out: Percent Control
[7] = target: TSSK1B (Homo sapiens, UniProt Q9BXA7); test: biochemical; assay type: binding; conditions: 10000 nM; read-out: Percent Control
[8] = target: T2, COX-1 (Homo sapiens, UniProt P23219); test: COX-1 inhibition (Eurofins item 4173); assay type: biochemical
T2 construct: purchased Eurofins item 4173
Description: . […] This panel includes several adverse drug reaction receptors such as the serotonin receptor 5HT2b, M1 and M2 muscarinic receptors and adrenergic receptors. […]. page 7:
Supplementary Figure 7: Non-GPCR off-target screening for 74. a)-e) Dose-response curves of 74 at […]
proliferator-activated receptor gamma (PPARγ, Eurofins item G124). Data in a)-e) and g)-i) represent two technical replicates. Source data are provided as a Source Data file.
as §1

[9] = target: PKAC-alpha (Homo sapiens, UniProt P17612); test: biochemical; assay type: binding; conditions: 10000 nM; read-out: Percent Control
Description: (§2) Source data are provided as a Source Data file.

[10] = target: MKNK1 (Homo sapiens, UniProt Q9BUB5); test: biochemical; assay type: binding; conditions: 10000 nM; read-out: Percent Control
Description: as §2

[11] = target: KIT (Homo sapiens, UniProt P10721); test: biochemical; assay type: binding; conditions: 10000 nM; read-out: Percent Control
Description: as §2

[12] = target: p38-beta (Homo sapiens, UniProt Q15759); test: biochemical; assay type: binding; conditions: 10000 nM; read-out: Percent Control
Description: as §2

[13] = target: PIM3 (Homo sapiens, UniProt Q86V86); test: biochemical; assay type: binding; conditions: 10000 nM; read-out: Percent Control
Description: as §2

[14] = target: PDGFRB (Homo sapiens, UniProt P09619); test: biochemical; assay type: binding; conditions: 10000 nM; read-out: Percent Control
Description: as §2

[15] = target: MLK1 (Homo sapiens, UniProt P80192); test: biochemical; assay type: binding; conditions: 10000 nM; read-out: Percent Control
Description: as §2

[16] = target: MAPKAPK2 (Homo sapiens, UniProt P49137); test: biochemical; assay type: binding; conditions: 10000 nM; read-out: Percent Control
Description: as §2

[17] = target: MEK2 (Homo sapiens, UniProt P36507); test: biochemical; assay type: binding; conditions: 10000 nM; read-out: Percent Control
Description: as §2

[18] = target: KIT(D816V) (Homo sapiens, UniProt P10721, D816V); test: biochemical; assay type: binding; conditions: 10000 nM; read-out: Percent Control
Description: as §2

[19] = target: PLK4 (Homo sapiens, UniProt O00444); test: biochemical; assay type: binding; conditions: 10000 nM; read-out: Percent Control
Description: as §2

[20] = target: IGF1R (Homo sapiens, UniProt P08069); test: biochemical; assay type: binding; conditions: 10000 nM; read-out: Percent Control
Description: as §2

[21] = target: LKB1 (Homo sapiens, UniProt Q15831); test: biochemical; assay type: binding; conditions: 10000 nM; read-out: Percent Control
Description: as §2

[22] = target: T3, JAK2(JH1domain-catalytic) (Homo sapiens, UniProt O60674); test: KINOMEscan; assay type: binding
T3 construct: JAK2(JH1domain-catalytic); purchased Eurofins DiscoverX KINOMEscan (scanEDGE, 97 kinases)

[23] = target: T4, Thromboxane A2 (TP) receptor (Homo sapiens, UniProt P21731); test: Functional cAMP production assay, TP receptor; assay type: cell-based
T4 sequence (P21731 1-343): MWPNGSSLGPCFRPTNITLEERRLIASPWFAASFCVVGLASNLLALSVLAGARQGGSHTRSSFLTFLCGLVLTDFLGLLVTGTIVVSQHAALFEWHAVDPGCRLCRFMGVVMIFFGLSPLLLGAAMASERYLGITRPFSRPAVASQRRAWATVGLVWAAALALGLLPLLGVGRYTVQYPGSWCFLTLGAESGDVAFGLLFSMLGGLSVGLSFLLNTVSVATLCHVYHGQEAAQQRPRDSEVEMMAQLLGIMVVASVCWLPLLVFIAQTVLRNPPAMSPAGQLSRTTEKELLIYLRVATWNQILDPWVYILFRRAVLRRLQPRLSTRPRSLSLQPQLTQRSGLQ

[24] = target: ERBB4 (Homo sapiens, UniProt Q15303); test: biochemical; assay type: binding; conditions: 10000 nM; read-out: Percent Control
[25] = target: T5, RSK2(Kin.Dom.1-N-terminal) (Homo sapiens, UniProt P51812); test: KINOMEscan; assay type: binding
T5 construct: RSK2(Kin.Dom.1-N-terminal); purchased Eurofins DiscoverX KINOMEscan (scanEDGE, 97 kinases)

[26] = target: ALK (Homo sapiens, UniProt Q9UM73); test: biochemical; assay type: binding; conditions: 10000 nM; read-out: Percent Control
[27] = test system: mice; assay type: in vivo; conditions: absence of injury
[28] = 10000 nM, read-out: Percent Control

T2 sequence (P23219 24-599): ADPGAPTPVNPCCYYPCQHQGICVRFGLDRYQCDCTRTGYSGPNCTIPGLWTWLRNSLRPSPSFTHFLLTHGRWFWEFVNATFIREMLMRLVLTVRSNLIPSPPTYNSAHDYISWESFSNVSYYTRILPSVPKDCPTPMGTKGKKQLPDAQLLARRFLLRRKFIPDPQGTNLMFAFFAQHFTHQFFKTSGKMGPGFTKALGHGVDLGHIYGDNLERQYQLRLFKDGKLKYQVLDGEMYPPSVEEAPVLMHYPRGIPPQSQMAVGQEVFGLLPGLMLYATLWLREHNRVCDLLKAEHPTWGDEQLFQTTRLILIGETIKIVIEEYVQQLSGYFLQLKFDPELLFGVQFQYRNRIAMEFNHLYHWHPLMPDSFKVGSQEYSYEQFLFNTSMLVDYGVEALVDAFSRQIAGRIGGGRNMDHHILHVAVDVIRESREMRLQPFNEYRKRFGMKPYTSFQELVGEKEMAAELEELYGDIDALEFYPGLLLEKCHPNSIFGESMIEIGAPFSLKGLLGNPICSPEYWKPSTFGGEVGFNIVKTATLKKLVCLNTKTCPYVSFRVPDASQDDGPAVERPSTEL
T3 sequence (O60674 810-1132 limits assumed): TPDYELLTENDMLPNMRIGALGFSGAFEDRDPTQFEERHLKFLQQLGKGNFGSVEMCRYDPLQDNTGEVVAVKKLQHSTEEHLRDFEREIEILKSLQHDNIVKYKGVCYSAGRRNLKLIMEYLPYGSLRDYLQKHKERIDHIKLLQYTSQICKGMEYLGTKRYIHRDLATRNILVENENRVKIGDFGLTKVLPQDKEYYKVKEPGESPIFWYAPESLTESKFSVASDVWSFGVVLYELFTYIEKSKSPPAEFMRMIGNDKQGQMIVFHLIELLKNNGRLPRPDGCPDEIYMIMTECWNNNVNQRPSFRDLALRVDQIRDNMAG
T5 sequence (P51812 1-397 limits assumed): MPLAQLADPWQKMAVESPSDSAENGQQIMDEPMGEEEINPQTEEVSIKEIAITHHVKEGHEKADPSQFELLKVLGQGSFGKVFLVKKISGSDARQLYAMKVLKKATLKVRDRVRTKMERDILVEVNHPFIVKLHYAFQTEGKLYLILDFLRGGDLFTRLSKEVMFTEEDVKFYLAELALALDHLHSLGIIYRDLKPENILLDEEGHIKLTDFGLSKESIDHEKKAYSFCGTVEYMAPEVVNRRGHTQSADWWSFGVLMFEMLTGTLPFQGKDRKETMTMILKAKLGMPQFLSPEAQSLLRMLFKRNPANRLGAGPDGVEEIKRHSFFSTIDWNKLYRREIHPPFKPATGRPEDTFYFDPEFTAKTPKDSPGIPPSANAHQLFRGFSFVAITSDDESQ
Sequence of wild-type EP4R (P35408 whole entry): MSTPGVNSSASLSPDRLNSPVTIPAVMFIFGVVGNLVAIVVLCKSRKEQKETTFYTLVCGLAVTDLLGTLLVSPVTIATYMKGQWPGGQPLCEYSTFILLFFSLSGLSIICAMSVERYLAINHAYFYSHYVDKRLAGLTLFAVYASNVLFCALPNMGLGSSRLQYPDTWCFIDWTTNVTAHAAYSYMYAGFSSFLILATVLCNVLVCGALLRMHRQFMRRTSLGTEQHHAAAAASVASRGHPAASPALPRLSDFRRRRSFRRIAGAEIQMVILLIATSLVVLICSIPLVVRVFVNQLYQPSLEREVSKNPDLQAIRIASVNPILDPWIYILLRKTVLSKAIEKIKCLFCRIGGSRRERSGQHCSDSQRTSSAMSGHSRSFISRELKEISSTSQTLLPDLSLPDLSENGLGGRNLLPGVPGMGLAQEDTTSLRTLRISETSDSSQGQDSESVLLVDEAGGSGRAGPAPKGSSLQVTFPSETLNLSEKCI
Sequence of PDGFRB (P09619 33-1106): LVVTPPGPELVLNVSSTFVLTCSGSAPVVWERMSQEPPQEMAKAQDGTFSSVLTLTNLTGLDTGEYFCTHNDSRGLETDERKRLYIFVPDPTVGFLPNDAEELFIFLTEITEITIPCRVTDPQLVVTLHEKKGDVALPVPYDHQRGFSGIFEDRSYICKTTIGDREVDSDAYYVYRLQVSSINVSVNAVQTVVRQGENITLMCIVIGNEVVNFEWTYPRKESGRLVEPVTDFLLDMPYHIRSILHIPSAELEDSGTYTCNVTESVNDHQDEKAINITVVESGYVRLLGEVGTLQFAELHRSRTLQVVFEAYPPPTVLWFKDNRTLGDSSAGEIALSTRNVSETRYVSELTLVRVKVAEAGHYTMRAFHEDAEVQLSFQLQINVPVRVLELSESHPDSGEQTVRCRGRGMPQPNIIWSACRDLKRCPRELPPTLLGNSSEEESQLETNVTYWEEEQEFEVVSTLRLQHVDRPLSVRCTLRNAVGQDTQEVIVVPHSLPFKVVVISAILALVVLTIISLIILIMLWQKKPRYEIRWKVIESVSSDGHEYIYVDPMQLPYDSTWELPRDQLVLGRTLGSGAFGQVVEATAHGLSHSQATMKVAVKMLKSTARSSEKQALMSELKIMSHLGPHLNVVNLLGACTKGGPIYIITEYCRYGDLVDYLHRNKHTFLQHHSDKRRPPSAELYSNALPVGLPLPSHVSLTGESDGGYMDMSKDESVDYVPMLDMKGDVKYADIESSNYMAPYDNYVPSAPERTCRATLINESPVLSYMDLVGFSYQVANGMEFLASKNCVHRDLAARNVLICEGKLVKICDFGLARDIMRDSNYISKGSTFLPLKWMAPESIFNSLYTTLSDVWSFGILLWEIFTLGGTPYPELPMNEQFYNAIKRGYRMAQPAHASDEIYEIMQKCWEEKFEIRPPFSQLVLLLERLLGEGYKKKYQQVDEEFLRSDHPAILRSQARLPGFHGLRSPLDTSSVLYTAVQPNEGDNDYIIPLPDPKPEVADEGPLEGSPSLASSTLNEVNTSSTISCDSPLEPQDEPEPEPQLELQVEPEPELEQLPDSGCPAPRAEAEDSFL
Sequence of KIT(D816V) (P10721 26-976 D816V): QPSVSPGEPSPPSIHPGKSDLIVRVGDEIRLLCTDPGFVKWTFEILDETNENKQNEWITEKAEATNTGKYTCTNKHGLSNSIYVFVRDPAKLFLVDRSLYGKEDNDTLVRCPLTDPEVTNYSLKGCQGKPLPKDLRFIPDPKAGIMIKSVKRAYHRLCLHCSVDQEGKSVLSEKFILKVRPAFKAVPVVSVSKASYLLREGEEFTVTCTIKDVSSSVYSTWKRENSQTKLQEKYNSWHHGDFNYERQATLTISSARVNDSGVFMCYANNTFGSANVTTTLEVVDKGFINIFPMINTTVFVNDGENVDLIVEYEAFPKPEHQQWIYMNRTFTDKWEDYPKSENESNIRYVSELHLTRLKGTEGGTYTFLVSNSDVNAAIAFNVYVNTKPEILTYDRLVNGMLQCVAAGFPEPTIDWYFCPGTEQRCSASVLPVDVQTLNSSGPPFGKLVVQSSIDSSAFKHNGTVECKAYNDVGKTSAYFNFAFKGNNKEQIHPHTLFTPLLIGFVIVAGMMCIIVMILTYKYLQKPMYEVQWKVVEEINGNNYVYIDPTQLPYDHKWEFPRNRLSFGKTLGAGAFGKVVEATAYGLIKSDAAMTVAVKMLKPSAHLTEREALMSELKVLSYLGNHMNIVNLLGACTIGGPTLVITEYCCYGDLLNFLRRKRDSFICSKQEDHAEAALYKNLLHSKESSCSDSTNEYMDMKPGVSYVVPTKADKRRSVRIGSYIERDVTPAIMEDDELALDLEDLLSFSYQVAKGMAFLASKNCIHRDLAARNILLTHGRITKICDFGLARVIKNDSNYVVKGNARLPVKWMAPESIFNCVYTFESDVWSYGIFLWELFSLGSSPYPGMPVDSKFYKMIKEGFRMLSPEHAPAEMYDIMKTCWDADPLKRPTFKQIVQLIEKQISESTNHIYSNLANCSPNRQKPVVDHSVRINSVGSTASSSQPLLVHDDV
Sequence of MEK2 (P36507 whole entry): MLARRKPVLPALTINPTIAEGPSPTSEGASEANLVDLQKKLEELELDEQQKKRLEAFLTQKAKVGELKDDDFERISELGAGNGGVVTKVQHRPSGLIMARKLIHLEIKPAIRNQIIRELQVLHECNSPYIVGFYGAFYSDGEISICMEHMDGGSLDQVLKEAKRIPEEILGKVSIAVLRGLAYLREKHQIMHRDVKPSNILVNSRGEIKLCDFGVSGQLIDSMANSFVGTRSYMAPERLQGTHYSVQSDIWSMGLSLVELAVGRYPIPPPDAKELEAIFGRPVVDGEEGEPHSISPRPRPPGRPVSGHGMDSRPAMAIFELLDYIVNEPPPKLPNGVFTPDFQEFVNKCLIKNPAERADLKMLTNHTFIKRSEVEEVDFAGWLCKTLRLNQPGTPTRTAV
Sequence of EP4R Thr76Ala mutant (P35408 whole entry T76A): as the sequence (P35408 whole entry) above, with T76A counted along it
Sequence of KIT (P10721 26-976): as the sequence (P10721 26-976 D816V) above, with V791D counted along it
Sequence of MAPKAPK2 (P49137 whole entry): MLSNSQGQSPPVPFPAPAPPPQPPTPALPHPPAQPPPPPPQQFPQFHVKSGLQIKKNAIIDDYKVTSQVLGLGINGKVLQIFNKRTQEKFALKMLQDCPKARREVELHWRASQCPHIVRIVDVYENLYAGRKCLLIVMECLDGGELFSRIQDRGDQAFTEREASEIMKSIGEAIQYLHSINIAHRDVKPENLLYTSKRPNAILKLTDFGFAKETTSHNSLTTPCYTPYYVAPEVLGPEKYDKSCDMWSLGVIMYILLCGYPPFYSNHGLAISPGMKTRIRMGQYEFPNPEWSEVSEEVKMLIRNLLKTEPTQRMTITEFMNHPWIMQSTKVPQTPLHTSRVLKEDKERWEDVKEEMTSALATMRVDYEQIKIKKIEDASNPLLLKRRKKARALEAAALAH
T1 sequence (P35408 whole entry, the tested form may be a part): as the sequence (P35408 whole entry) above

O=C(O)C1CCC2(CC1)CC(Nc1ncnc3[nH]c4c(F)cccc4c13)C2 (centres unmarked) [Compound 74, OC(=O)C1CCC2(CC(C2)NC=3N=CN=C4NC=5C(F)=CC=CC5C34)CC1]
remaining activity at 10 µM [1]: 26% | Kb [2]: 16 nM | reduced potency at the Thr76Ala mutant [3]: 30 fold | IC50 [4]: 78.9 nM | mode of antagonism by Schild analysis [4]: competitive antagonism | Ki ([4]; calculated using the Cheng Prusoff equation, read-out: Arrestin-BRET Ki*): 15.6 nM | remaining activity at 10 µM [5]: 40% | remaining activity at 10 µM [6]: 49% | remaining activity at 10 µM [7]: 52% | inhibitory / off-target activity at COX-1 ([8]; 3 µM): no off-target activity; also recorded: no inhibitory activity | %Inhibition of Control Values ([8]; COX-1, 3 µM, technical replicates): -5.7% and -9.9% | remaining activity at 10 µM [9]: 99% | remaining activity at 10 µM [10]: 72% | remaining activity at 10 µM [11]: 75% | remaining activity at 10 µM [12]: 79% | remaining activity at 10 µM [13]: 53% | remaining activity at 10 µM [14]: 60% | remaining activity at 10 µM [15]: 45% | remaining activity at 10 µM [16]: 98% | remaining activity at 10 µM [17]: 23% | remaining activity at 10 µM [18]: 76% | remaining activity at 10 µM [19]: 34% | remaining activity at 10 µM [20]: 100% | remaining activity at 10 µM [21]: 97% | remaining binding at 10 µM [22, 28]: 0% | Signal (qPCR) ([22]; JAK2, [Compound] 0.001 nM): 2.42e-6 and 2.15e-6 | Signal (qPCR) ([22]; JAK2, [Compound] 0.01 nM): 2.35e-6 and 2.44e-6 | Signal (qPCR) ([22]; JAK2, [Compound] 0.169 nM): 2.62e-6 and 2.24e-6 | Signal (qPCR) ([22]; JAK2, [Compound] 0.508 nM): 2.26e-6 and 2.31e-6 | Signal (qPCR) ([22]; JAK2, [Compound] 1.52 nM): 2.56e-6 and 2.32e-6 | Signal (qPCR) ([22]; JAK2, [Compound] 13.7 nM): 2.33e-6 and 2.17e-6 | Signal (qPCR) ([22]; JAK2, [Compound] 41.2 nM): 2.15e-6 and 2.16e-6 | Signal (qPCR) ([22]; JAK2, [Compound] 123 nM): 2.08e-6 and 2e-6 | Signal (qPCR) ([22]; JAK2, [Compound] 370 nM): 1.2e-6 | Signal (qPCR) ([22]; JAK2, [Compound] 3330 nM): 1.6e-7 and 1.8e-7 | Signal (qPCR) ([22]; JAK2, [Compound] 10000 nM): 4e-8 | off-target activity at thromboxane A2 receptor [23]: no off-target activities | remaining activity at 10 µM [24]: 99% | remaining binding at 10 µM [25, 28]: 0.25% | Signal (qPCR) ([25]; RSK2, [Compound] 0.0001 nM): 4.94e-6 and 4.75e-6 | Signal (qPCR) ([25]; RSK2, [Compound] 0.01 nM): 3.91e-6 and 4.73e-6 | Signal (qPCR) ([25]; RSK2, [Compound] 0.169 nM): 4.25e-6 and 3.92e-6 | Signal (qPCR) ([25]; RSK2, [Compound] 0.508 nM): 4.17e-6 and 4.75e-6 | Signal (qPCR) ([25]; RSK2, [Compound] 1.52 nM): 4.57e-6 and 4.32e-6 | Signal (qPCR) ([25]; RSK2, [Compound] 4.57 nM): 4.65e-6 and 4.1e-6 | Signal (qPCR) ([25]; RSK2, [Compound] 13.7 nM): 3.9e-6 and 3.53e-6 | Signal (qPCR) ([25]; RSK2, [Compound] 41.2 nM): 3.36e-6 and 3.55e-6 | Signal (qPCR) ([25]; RSK2, [Compound] 123 nM): 3.09e-6 and 2.73e-6 | Signal (qPCR) ([25]; RSK2, [Compound] 370 nM): 2.17e-6 and 2e-6 | Signal (qPCR) ([25]; RSK2, [Compound] 3330 nM): 5.93e-7 and 5.31e-7 | Signal (qPCR) ([25]; RSK2, [Compound] 10000 nM): 2.67e-7 and 3.25e-7 | remaining activity at 10 µM [26]: 14%

O=C([O-])C1CCC2(CC1)CC(Nc1ncnc3[nH]c4c(F)cccc4c13)C2.[Na+] (centres unmarked) [Compound 77, [Na+].[O-]C(=O)C1CCC2(CC(C2)NC=3N=CN=C4NC=5C(F)=CC=CC5C34)CC1]
effect on baseline mechanical thresholds [27]: no effect
